Reference: PubChem BioAssay AID652153 (Molecular Libraries Program, Specialized Chemistry Center, …, 2013)
Activity calls are given as the source filed them. How the calls were made is not given here.

What follows are compounds tested against Rac GTPase-activating protein 1 (Homo sapiens) (UniProt Q9H0H5) (assay: MgcRacGAP inhibitors, selectivity among RhoGAPs, dose response, selectivity assay, biochemical (AID 652153)). Details: MgcRacGAP GAP activity on Rac1F28L, Biomol green phosphate.
Sequence of Rac GTPase-activating protein 1 (Homo sapiens) (Q9H0H5 whole entry, looked up): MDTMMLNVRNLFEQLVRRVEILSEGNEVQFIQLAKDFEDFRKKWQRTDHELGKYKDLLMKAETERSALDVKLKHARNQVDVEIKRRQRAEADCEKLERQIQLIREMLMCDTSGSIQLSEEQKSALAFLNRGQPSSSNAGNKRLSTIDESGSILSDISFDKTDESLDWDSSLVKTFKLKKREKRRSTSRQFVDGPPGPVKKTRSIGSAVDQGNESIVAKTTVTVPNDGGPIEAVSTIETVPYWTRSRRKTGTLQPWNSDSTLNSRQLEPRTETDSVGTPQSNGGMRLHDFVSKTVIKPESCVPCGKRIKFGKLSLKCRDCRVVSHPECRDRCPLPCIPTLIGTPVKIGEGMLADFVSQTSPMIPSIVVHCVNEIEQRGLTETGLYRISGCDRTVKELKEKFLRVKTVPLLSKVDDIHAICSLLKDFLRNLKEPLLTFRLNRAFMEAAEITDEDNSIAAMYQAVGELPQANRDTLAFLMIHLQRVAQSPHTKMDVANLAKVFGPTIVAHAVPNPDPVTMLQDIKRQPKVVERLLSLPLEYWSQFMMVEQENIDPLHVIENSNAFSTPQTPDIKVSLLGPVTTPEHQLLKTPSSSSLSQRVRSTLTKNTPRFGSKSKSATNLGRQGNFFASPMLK

| SMILES | IC50 |
| --- | --- |
| Cn1ccc(=Nc2ccc(NC(=O)c3ccc(N=c4ccn(C)c5ccc([N+](=O)[O-])cc45)cc3)cc2)cc1 | 939 nM |
| CC(=O)Nc1ccc2sn(-c3ccccc3)c(=O)c2c1 | 643 nM |
| O=c1c2ccc(F)cc2sn1-c1ccccc1 | inactive |
| O=C(O)C1CSC(c2ccco2)N1 (stereo unspecified) | inactive |
| O=c1c2cc(F)ccc2sn1-c1ccccc1 | inactive |
| O=C1NC(=S)N(c2ccccc2)C(=O)/C1=C/c1ccco1 | inactive |
| O=c1c2ccccc2sn1-c1ccc(Cl)cc1 | inactive |
| O=c1c2ccccc2sn1-c1ccccc1F | inactive |
| Cc1c(Cl)sn(-c2ccc(Cl)cc2)c1=O | inactive |
| COc1ccc(-n2sc3ccc(F)cc3c2=O)cc1 | inactive |
| O=C(Nc1ccccc1Cl)/C(Cl)=C(\Cl)S(=O)c1ccccc1 (stereo unspecified) | inactive |
| O=C1C(Cl)=C(NC(=O)c2ccccc2)C(=O)C(Cl)=C1NC(=O)c1ccccc1 | inactive |
| CN(C)c1ccc(C=c2c3cc(O)ccc3n3c2cc(-c2ccccc2)[n+]3C)cc1 | inactive |
| COc1ccc(/C=N/Nc2cc(C)nc3ccc(OC)cc23)c(OC)c1 | inactive |
| O=C1C=CC(=O)N1c1ccccc1N1C(=O)C=CC1=O | inactive |
| CN(C)c1ccc(/C=C/c2cc[n+](C)c3ccccc23)cc1 | inactive |
| O=C(O)c1cc(N2N=C(C(F)(F)F)/C(=C/C=C/c3ccco3)C2=O)ccc1Cl | inactive |
| CC1=NNC(=O)C1Br (stereo unspecified) | inactive |
| O=C1C=CC(=O)c2c(O)c(N3CCN(CCO)CC3)c(Cl)c(O)c21 | inactive |
| Cc1cc(C)c2c(=N)c3ccccc3n(CCCCCCCCn3c4ccccc4c(=N)c4c(C)cc(C)nc43)c2n1 | inactive |
| O=C1C(SCCO)=C(SCCO)C(=O)c2ccccc21 | inactive |
| C[n+]1c(-c2ccc(C=NNC(=O)c3ccc(C(=O)NN=Cc4ccc(-c5cn6ccccc6[n+]5C)cc4)cc3)cc2)cn2ccccc21 | inactive |
| CC1OC(CC(=O)O)CC2=C1C(=O)c1c(O)cccc1C2=O (stereo unspecified) | inactive |

| SMILES | IC50 |
| --- | --- |
| Cc1ccc(C)c(-n2sc3ccc(F)cc3c2=O)c1 | inactive |
| CSc1nc(N)c(N=Nc2ccc([As](=O)(O)O)cc2)c(=O)[nH]1 | inactive |
| O=c1c2sc3ccccc3c2[nH]c(=S)n1CCN1CCOCC1 | inactive |
| Cc1ccc(-n2sc3cc(F)ccc3c2=O)c(C)c1 | inactive |
| COc1ccc(NC2CCCN(C(=O)C3(C)CCCCC3)C2)cc1 (stereo unspecified) | inactive |
| O=C(O)c1cccc(-n2sc3ccccc3c2=O)c1 | inactive |
| Cc1cc(N)c2cc(NC(=O)/C=C/c3ccccc3Cl)ccc2n1 | inactive |
| CN(C)c1ncc(C2=C(Cl)C(=O)C(N3CCCC3)=C(Cl)C2=O)s1 | inactive |
| O=c1c2cc(F)ccc2sn1-c1ccccc1Cl | 920 nM |
| COc1ccc(Nc2ccc3ccccc3c2)cc1 | inactive |
| Nc1ccc(OCc2ccco2)cc1 | inactive |
| Nc1n[nH]c(=S)n1/N=C1/C(=O)Nc2ccccc21 | inactive |
| O=c1c2ccccc2sn1-c1ccc(Cl)cc1Cl | inactive |
| CCN1CCN(Cc2ccc(NC(=O)c3ccc(C)c(/C=C/c4cnc(Nc5cc(N6CCNCC6)nc(C)n5)cn4)c3)cc2C(F)(F)F)CC1 | inactive |
| O=c1c2ccccc2sn1-c1cccc(Cl)c1 | 690 nM |
| O=C(O)c1cc(N2C(=O)C=CC2=O)cc(N2C(=O)C=CC2=O)c1 | inactive |
| O=C1C=CC(=O)c2c(O)c(N3CCN(CCOCCO)CC3)c(Br)c(O)c21 | inactive |
| O=C1C(=Cc2ccco2)CCC1=Cc1ccco1 | inactive |
| O=c1c2ccccc2sn1-c1ccc(F)cc1 | inactive |
| CN(C)c1nc(=NCc2cccs2)ss1 | inactive |
| COC(=O)c1cccc(-n2sc3ccccc3c2=O)c1 | inactive |
| COc1ccc(-n2sc3ccccc3c2=O)cc1 | inactive |
| CCN(CC)c1ccc(C(=C2C=CC(=[N+](CC)CC)C=C2)c2ccc(N(CC)CC)cc2)cc1 | inactive |
